# What was measured:
# [1] = system: participants with narcolepsy; assay: Study 14-002, 12-week randomized controlled trial: 24-hour ABPM at screening and week 8; type: in vivo, human; settings: for effect on percentage of participants with a non-dipping BP profile: screening to week 8, any dose studied
# Experimental: (§1) Solriamfetol is a dopamine and norepinephrine reuptake inhibitor indicated to improve wakefulness in adult patients with excessive daytime sleepiness associated with narcolepsy (75-150 mg/d) or obstructive sleep apnea (37.5-150 mg/d). Previous studies reported small mean increases in blood pressure (BP); however, the time course of these effects has not been evaluated. […] These analyses evaluated the effects of solriamfetol treatment on BP using 24-hour ambulatory blood pressure monitoring (ABPM) and on the percentage of narcolepsy patients with a non-dipping BP profile.
# Twenty-four-hour ABPM was conducted at baseline and week 8 in a 12-week randomized controlled trial in participants with narcolepsy (n=236). Blood pressure was collected every 30 minutes.
# participants with OSA = assay: Study 14-003, 12-week randomized controlled trial: 24-hour ABPM at screening and week 8; type: in vivo, human; settings: for effect on percentage of participants with a non-dipping BP profile: screening to week 8, any dose studied
# Experimental: as §1, with “with” for “with narcolepsy (75-150 mg/d) or”, “(OSA; 37.5-150 mg/d) or narcolepsy (75-150” for “(37.5-150”, “OSA” for “narcolepsy”
# Twenty-four-hour ABPM was conducted at baseline and week 8 in a 12-week randomized controlled trial in participants with OSA (n=474). Blood pressure was collected every 30 minutes.
# [2] = highest approved dose of 150 mg/d
# [3] = 37.5 mg, listed as solriamfetol
smiles,measurement,setting,value
"NC(=O)OC[C@H](N)Cc1ccccc1 [Solriamfetol, (R)-2-amino-3-phenylpropyl carbamate]","Mean Change in DBP on ABPM from Screening to Week 8, Mean (SD)",[1]; 75 mg,1.4 (5.13) mmHg
same,"Mean Change in HR on ABPM from Screening to Week 8, Mean (SD)",[1]; 75 mg,1.0 (7.95) bpm
same,"Mean Change in SBP on ABPM from Screening to Week 8, Mean (SD)",[1]; 75 mg,1.8 (6.53) mmHg
same,"Mean Change in DBP on ABPM from Screening to Week 8, Mean (SD)","[1]; 75 mg, listed as solriamfetol",1.4 mmHg
same,"Mean Change in SBP on ABPM from Screening to Week 8, Mean (SD)","[1]; 75 mg, listed as solriamfetol",1.8 mmHg
same,"Mean Change in DBP on ABPM from Screening to Week 8, Mean (SD)",[1]; 150 mg,0.4 (4.46) mmHg
same,"Mean Change in HR on ABPM from Screening to Week 8, Mean (SD)",[1]; 150 mg,0.7 (7.12) bpm
same,"Mean Change in SBP on ABPM from Screening to Week 8, Mean (SD)",[1]; 150 mg,−0.5 (5.51) mmHg
same,"Mean Change in DBP on ABPM from Screening to Week 8, Mean (SD)","[1]; 150 mg, listed as solriamfetol",0.4 mmHg
same,"Mean Change in SBP on ABPM from Screening to Week 8, Mean (SD)","[1]; 150 mg, listed as solriamfetol",−0.5 mmHg
same,"Mean Change in DBP on ABPM from Screening to Week 8, Mean (SD)",[1]; 300 mg,3.0 (4.97) mmHg
same,"Mean Change in HR on ABPM from Screening to Week 8, Mean (SD)",[1]; 300 mg,5.3 (7.55) bpm
same,"Mean Change in SBP on ABPM from Screening to Week 8, Mean (SD)",[1]; 300 mg,2.4 (5.97) mmHg
same,"Mean Change in DBP on ABPM from Screening to Week 8, Mean (SD)","[1]; 300 mg, listed as solriamfetol",3.0 mmHg
same,"Mean Change in SBP on ABPM from Screening to Week 8, Mean (SD)","[1]; 300 mg, listed as solriamfetol",2.4 mmHg
same,percentage of non-dippers (<10% decrease in MAP during sleep),"[1]; combined solriamfetol, week 8 (baseline 48%)",39%
same,time course of effects on BP (24-hour ABPM),[1]; [2],transient across the day
same,effect on percentage of participants with a non-dipping BP profile,[1],not observed to have an increase
same,effect on percentage of participants with a non-dipping BP profile,[1]; listed as solriamfetol,did not increase
same,"Mean Change in DBP on ABPM from Screening to Week 8, Mean (SD)",participants with OSA; 37.5 mg,0.8 (6.09) mmHg
same,"Mean Change in HR on ABPM from Screening to Week 8, Mean (SD)",participants with OSA; 37.5 mg,0.7 (5.57) bpm
same,"Mean Change in SBP on ABPM from Screening to Week 8, Mean (SD)",participants with OSA; 37.5 mg,0.7 (10.19) mmHg
same,"Mean Change in DBP on ABPM from Screening to Week 8, Mean (SD)",participants with OSA; [3],0.8 mmHg
same,"Mean Change in SBP on ABPM from Screening to Week 8, Mean (SD)",participants with OSA; [3],0.7 mmHg
same,"Mean Change in DBP on ABPM from Screening to Week 8, Mean (SD)",participants with OSA; 75 mg,0.7 (6.55) mmHg
same,"Mean Change in HR on ABPM from Screening to Week 8, Mean (SD)",participants with OSA; 75 mg,0.4 (7.70) bpm
same,"Mean Change in SBP on ABPM from Screening to Week 8, Mean (SD)",participants with OSA; 75 mg,2.2 (9.82) mmHg
same,"Mean Change in DBP on ABPM from Screening to Week 8, Mean (SD)","participants with OSA; 75 mg, listed as solriamfetol",0.7 mmHg
same,"Mean Change in SBP on ABPM from Screening to Week 8, Mean (SD)","participants with OSA; 75 mg, listed as solriamfetol",2.2 mmHg
same,"Mean Change in DBP on ABPM from Screening to Week 8, Mean (SD)",participants with OSA; 150 mg,−0.2 (5.10) mmHg
same,"Mean Change in HR on ABPM from Screening to Week 8, Mean (SD)",participants with OSA; 150 mg,1.5 (6.53) bpm
same,"Mean Change in SBP on ABPM from Screening to Week 8, Mean (SD)",participants with OSA; 150 mg,−0.5 (8.64) mmHg
same,"Mean Change in DBP on ABPM from Screening to Week 8, Mean (SD)","participants with OSA; 150 mg, listed as solriamfetol",−0.2 mmHg
same,"Mean Change in SBP on ABPM from Screening to Week 8, Mean (SD)","participants with OSA; 150 mg, listed as solriamfetol",−0.5 mmHg
same,"Mean Change in DBP on ABPM from Screening to Week 8, Mean (SD)",participants with OSA; 300 mg,2.5 (8.66) mmHg
same,"Mean Change in HR on ABPM from Screening to Week 8, Mean (SD)",participants with OSA; 300 mg,1.9 (5.56) bpm
same,"Mean Change in SBP on ABPM from Screening to Week 8, Mean (SD)",participants with OSA; 300 mg,2.9 (13.41) mmHg
same,"Mean Change in DBP on ABPM from Screening to Week 8, Mean (SD)","participants with OSA; 300 mg, listed as solriamfetol",2.5 mmHg
same,"Mean Change in SBP on ABPM from Screening to Week 8, Mean (SD)","participants with OSA; 300 mg, listed as solriamfetol",2.9 mmHg
same,percentage of non-dippers (<10% decrease in MAP during sleep),"participants with OSA; combined solriamfetol, week 8 (baseline 55%)",53%
same,time course of effects on BP (24-hour ABPM),participants with OSA; [2],transient across the day
same,effect on percentage of participants with a non-dipping BP profile,participants with OSA,not observed to have an increase
same,effect on percentage of participants with a non-dipping BP profile,participants with OSA; listed as solriamfetol,did not increase

# Source: US20240358668A1, “METHODS AND CO[…] AM[…] CARD[…] USING (R)-2-AMINO-3-PH[…]” (AXSOME THERAPEUTICS, INC., priority 2021, published 2024)
